# Where a SMILES comes first, the peptide text is derived from it. [ ]: non-standard residue; d: D form. pGlu = O=C1CC[C@@H](C(=O)O)N1
# Assays:
# female Swiss albino mice = experiment: Analgesic activity, writhing test with 3% aqueous acetic acid; assay type: in vivo, mouse; details: for Analgesic activity (mean reduction of number of contorsions vs controls): 20 minute observation
# Experimental: This activity was evaluated with the writhing test, using a 3% aqueous acetic acid solution as pain-causing agent, injected intraperitoneally (0.1 ml/10 g). The experiment was performed with 80 female Swiss albino mice weighing 18-24 g, fasting for three hours and divided into groups of 20 animals each: (1) controls, treated with 0.9% NaCl; (2) those treated with the test tripeptide (10 mg/kg intraperitoneally); (3) those treated with adenosine (2 mg/kg intraperitoneally); (4) those treated with the tripeptide (10 mg/kg intraperitoneally) and adenosine (2 mg/kg intraperitoneally). In groups 1 and 2 the substances were administered 40 minutes before the acetic acid; in group 3 the adenosine was administered 10 minutes before the acetic acid; in group 4 the adenosine was administered 30 minutes after the tripeptide and 10 minutes before the acetic acid. After the acetic acid innoculation, the animals were placed in groups of 5 in plastic cages, and observed for a 20 minute period. The number of contorsions the animals made during that period was recorded. Based on the mean reduction of the number of contorsions of the treated animals with respect to the controls, the analgesic action of the test substance was calculated.
# [1] = system: Male CD Charles River rats; experiment: Potentiation of the hypotensive effect of adenosine; assay type: in vivo, rat; details: for Effect on the hypotensive effect of adenosine: tripeptide 0.1 mg/kg in the vein, 15 minutes before adenosine (0.15 mg/kg in the vein)
# Experimental: (§1) Male CD Charles River rats weighing 220-250 g were used, anesthetized with ethyl urethane (1.75 g/kg intraperitoneally). After incannulation of the trachea, the right carotid was isolated and connected by a cannula to a pressure measurement device. The isolated left carotid was used to record the flow by means of an electromagnetic flussimeter. Other parameters recorded were: dp/dt, ECG (electrocardiogram), BPM (beats per minute). All values were recorded on an 8 channel Hewlett Packard polygraph.
# (§2) The tripeptides were dissolved in 0.9% NaCl and injected in the right femoral vein.
# Any interference of synthesized peptides with the hemodynamic effects of adenosine would be shown using the method described. […] In this case the compound according to the invention was pGLU-GLU-TRP.
# [2] = system: Male CD Charles River rats; experiment: Hypotensive effect in anesthetized rats (carotid pressure after intravenous injection); assay type: in vivo, rat; details: dose of 2 mg/kg, injected in the right femoral vein, in 0.9% NaCl, urethane-anesthetized rats
# Experimental: as §1, with “After” for “Male CD Charles River rats weighing 220-250 g were used, anesthetized with ethyl urethane (1.75 g/kg intraperitoneally). After”
# as §2
SMILES,Δ on maximum (lowering of the maximum pressure) [2] [mm Hg],Δ on minimum (lowering of the minimum pressure) [2] [mm Hg],further results
"Nc1ncnc2c1ncn2[C@@H]1O[C@H](CO)[C@@H](O)[C@H]1O [adenosine, reference compound]",–,–,"Analgesic activity (mean reduction of number of contorsions vs controls) (female Swiss albino mice; adenosine 2 mg/kg intraperitoneally, 10 minutes before acetic acid): 20%; Hemodynamic effect of adenosine alone ([1]; 0.15 mg/kg in the vein): transient hypotensive effect"
"C[C@H](NC(=O)[C@@H]1CCC(=O)N1)C(=O)N[C@@H](Cc1c[nH]c2ccccc12)C(=O)O [pGLU--ALA--TRP, pGLU-ALA-TRP] ([pGlu]-Ala-Trp-OH)",10,20,–
"N=C(N)NCCC[C@H](NC(=O)[C@@H]1CCC(=O)N1)C(=O)N[C@@H](Cc1c[nH]c2ccccc12)C(=O)O [pGLU--ARG--TRP, pGLU-ARG-TRP] ([pGlu]-Arg-Trp-OH)",25,15,–
"NC(=O)C[C@H](NC(=O)[C@@H]1CCC(=O)N1)C(=O)N[C@@H](Cc1c[nH]c2ccccc12)C(=O)O [pGLU--ASN--TRP, pGLU-ASN-TRP] ([pGlu]-Asn-Trp-OH)",35,20,"Analgesic activity of tripeptide together with adenosine (female Swiss albino mice; tripeptide 10 mg/kg i.p. plus adenosine 2 mg/kg i.p. given 30 minutes after the tripeptide and 10 minutes before acetic acid): additive effect; Analgesic activity (mean reduction of number of contorsions vs controls) (female Swiss albino mice; tripeptide 10 mg/kg intraperitoneally, 40 minutes before acetic acid): 25%; Effect on the hypotensive effect of adenosine [1]: potentiates and prolongs the hypotensive effect"
"O=C(O)C[C@H](NC(=O)[C@@H]1CCC(=O)N1)C(=O)N[C@@H](Cc1c[nH]c2ccccc12)C(=O)O [pGLU--ASP--TRP, pGLU-ASP-TRP] ([pGlu]-Asp-Trp-OH)",10,10,–
"NC(=O)CC[C@H](NC(=O)[C@@H]1CCC(=O)N1)C(=O)N[C@@H](Cc1c[nH]c2ccccc12)C(=O)O [pGLU--GLN--TRP, pGLU-GLN-TRP] ([pGlu]-Gln-Trp-OH)",20,10,–
"O=C(O)CC[C@H](NC(=O)[C@@H]1CCC(=O)N1)C(=O)N[C@@H](Cc1c[nH]c2ccccc12)C(=O)O [pGLU--GLU--TRP, pGLU-GLU-TRP] ([pGlu]-Glu-Trp-OH)",20,10,Effect on the hypotensive effect of adenosine [1]: potentiates and prolongs the hypotensive effect
"O=C(CNC(=O)[C@@H]1CCC(=O)N1)N[C@@H](Cc1c[nH]c2ccccc12)C(=O)O [pGLU--GLY--TRP, p-GLU-GLY-TRP] ([pGlu]-Gly-Trp-OH)",25,35,–
CCOC(=O)[C@H](Cc1c[nH]c2ccccc12)NC(=O)[C@@H](NC(=O)[C@@H]1CCC(=O)N1)[C@@H](C)CC [pGLU--ILE--TRP--OEt] ([pGlu]-Ile-Trp-OEt),30,25,–
"CC(C)C[C@H](NC(=O)[C@@H]1CCC(=O)N1)C(=O)N[C@@H](Cc1c[nH]c2ccccc12)C(=O)O [pGLU--LEU--TRP, pGLU-LEU-TRP] ([pGlu]-Leu-Trp-OH)",30,30,–
"CCOC(=O)[C@H](Cc1c[nH]c2ccccc12)NC(=O)[C@H](CC(C)C)NC(=O)[C@@H]1CCC(=O)N1 [pGLU--LEU--TRP--OEt, pGLU-LEU-TRP-OEt] ([pGlu]-Leu-Trp-OEt)",30,20,–
"NCCCC[C@H](NC(=O)[C@@H]1CCC(=O)N1)C(=O)N[C@@H](Cc1c[nH]c2ccccc12)C(=O)O [pGLU--LYS--TRP, pGLU-LYS-TRP] ([pGlu]-Lys-Trp-OH)",35,25,–
"O=C1CC[C@@H](C(=O)N[C@@H](CO)C(=O)N[C@@H](Cc2c[nH]c3ccccc23)C(=O)O)N1 [pGLU--SER--TRP, pGLU-SER-TRP] ([pGlu]-Ser-Trp-OH)",45,35,–

# From patent publication US4619916A, “Tripeptide compounds containing pyroglutamic acid and tryptophan, process for their production and therapeutic applications” (Polifarma S.p.A., priority 1984, dated 1986)
